The values below come from patent publication EP2329817A1, “Retinoic acid receptor antagonists, miR-10a inhibitors and inhibitors of HOXB1 or HOXB3 repressors for treating pancreatic cancer” (Ernst-Moritz-Arndt-Universität Greifswald, priority 2009, dated 2011).

Common to all, as to type: cell-based, human
Assay [1] concerns miR-10a. Kind of assay: Northern blot of miR-10a expression in PaTu-T cells (densitometry). As to conditions: for miR-10a expression: result in words. The method, then:
(§1) Northern Blot analysis was performed essentially according to Kloosterman et al. ^16 using a miR-10 LNA probe ([…]) (Exiqon, Denmark). We had previously described protocols for RT-PCR^17 and RT-qPCR^18 . Primers for the RT-PCR were: HOXB1: sc-38686 and HOXB3: sc-38690-PR and RARα: sc-29465-PR all from Santa Cruz Biotechnology. For quantitative RT-PCR we used 100 ng of total RNA and the Roche Master SYBR Green kit. Single-band amplification was verified by melting curve dissociation protocols. A standard curve for β-actin using 1, 5, 10, 100, and 500 ng of total RNA was used for normalization. RT-qPCR primers for HOXB1 were: forward 5'-[…]-3' and reverse 5'-[…]-3' and for HOXB3: forward 5'-[…]-3' and reverse 5'-[…]-3'.
PaTu-T cells were incubated as indicated, with DMSO (Co), 200 nM Ro-41-5253 (RARα inh), control-Morpholino, miR-10a Morpholino, miR-196 siRNA (Co), or RARα siRNA and PaTu-S cells were co-incubated with 1 µM retinoic acid (RA) and control siRNA, RARα siRNA or Ro-415253 and miR-10a expression was evaluated by Northern blot analysis (A). […] RT-PCR control of GAPDH was used as a loading control (not shown). Dose response curves for RA and the RARα antagonist and the RT-PCR control for RARα siRNA treatment are shown in Supplemental Fig. 1. The effect of Ro-415253 on cell migration was analysed in an in vitro migration assay in PaTu-T cells. […] An actin re-blot confirmed equal loading.
PaTu-T cells were incubated for 24h with indicated concentrations of Ro-415253 and miR-10a expression was evaluated by northern blot analysis (upper panel). GAPDH loading control is shown in the lower panel. […] Patu-S cells were incubated tor 24h with indicated concentrations of ATRA and miR-10a expression was evaluated by northern blot analysis (upper panel). GAPDH loading control is shown in the lower panel. (C) Specific "knockdown" of RARα in PaTu-Tcells by RARα siRNA. RT-PCR from total RNA of RARα or control siRNA (Co) treated PaTu-T cells (24h) confirms specific knockdown of RARa. RT-PCR of GAPDH control is shown in the lower panel.

For a further assay, the system named is HOXB1. Kind of assay: RT-PCR / RT-qPCR of HOXB1 expression. The settings on record: quantitative PCR. The method, then: as §1
(§2) PaTu-S and PaTu-T cells were treated (24h) as indicated with specific siRNAs against HOXB1 (B1) and HOXB3 (B3) (Co: DMSO control) in the presence or absence of Ro-41-5253. Migration of these cells was analysed after transplantation into zebrafish embryos (see Table 1) and downregulation of HOXB1 and HOXB3 expression in these cells was confirmed by PCR analysis (A).
(§3) A similar regulation is seen following incubation with miR-10a Morpholinos or with miR-10a siRNAs (right side; Control: control Morpholino or control-siRNA) (B). Results are normalized to β-actin expression and similar results were obtained in three independent experiments. […]

In assay [2] the test system is miR-10a. In words: cells. The method, then:
Northern Blot analysis was performed essentially according to Kloosterman et al. ^16 using a miR-10 LNA probe ([…]) (Exiqon, Denmark). We had previously described protocols for RT-PCR^17 and RT-qPCR^18 . Primers for the RT-PCR were: HOXB1: sc-38686 and HOXB3: sc-38690-PR and RARα: sc-29465-PR all from Santa Cruz Biotechnology. For quantitative RT-PCR we used 100 ng of total RNA and the Roche Master SYBR Green kit. Single-band amplification was verified by melting curve dissociation protocols. A standard curve for β-actin using 1, 5, 10, 100, and 500 ng of total RNA was used for normalization. […]
PaTu-T cells were incubated as indicated, with DMSO (Co), 200 nM Ro-41-5253 (RARα inh), control-Morpholino, miR-10a Morpholino, miR-196 siRNA (Co), or RARα siRNA and PaTu-S cells were co-incubated with 1 µM retinoic acid (RA) and control siRNA, RARα siRNA or Ro-415253 and miR-10a expression was evaluated by Northern blot analysis (A). […] The effect of Ro-415253 on cell migration was analysed in an in vitro migration assay in PaTu-T cells. […]
PaTu-T cells were incubated for 24h with indicated concentrations of Ro-415253 and miR-10a expression was evaluated by northern blot analysis (upper panel). […] Patu-S cells were incubated tor 24h with indicated concentrations of ATRA and miR-10a expression was evaluated by northern blot analysis (upper panel). […]

A further assay relates to HOXB3. In words: RT-PCR / RT-qPCR of HOXB3 expression. As to conditions: quantitative PCR. The method, then: as §1, §2, §3
(In general: In qPCR the cycle at which signal appears reflects the starting amount.)

As for `CCCCCCCOc1cc2c(cc1/C(C)=C/c1ccc(C(=O)O)cc1)C(C)(C)CCS2(=O)=O` [Ro-41-5253, Benzoic acid, 4-(2-(7-(heptyloxy)-3,4-dihydro-4,4-dimethyl-2H-1-benzothiopyran-6-yl)-1-propenyl)-, S,S-dioxide, (E)], the “reduction of miR-10a expression” value in the assay on miR-10a [1] (densitometric analysis, Ro-41-5253 at 200 nM) was determined as 9.4 fold. The miR-10a expression entry in the assay on miR-10a [1] is reported as “significant decrease”; in the assay with miR-10a [1] (listed as Ro-415253) it was “Dose dependent repression”. In the assay with HOXB1 (PaTu-T cells), the HOXB1 expression entry was “increased”. Also, the “upregulation of miR-10a expression by retinoic acid” value in the assay with miR-10a [2] (PaTu-S cells co-incubated with 1 µM retinoic acid) is “completely blocked”. Moreover, in the assay with HOXB3 (PaTu-T cells), the HOXB3 expression result is listed as “increased”.
Consider `CC1=C(/C=C/C(C)=C/C=C/C(C)=C/C(=O)O)C(C)(C)CCC1` [RA, all trans retinoic acid], for which the HOXB1 expression result in the assay with HOXB1 (PaTu-S cells) is recorded as “decreased”. The fold induction at 1 µM in the assay with miR-10a [2] (Homo sapiens, 24 h, read-out: miR-10a expression upregulated) is 7.2. In the assay on HOXB3 (PaTu-S cells), the HOXB3 expression result was “decreased”.
